Source: EP0255256A2, “Antibiotics produced by actinomadura parvosata” (SMITHKLINE BECKMAN CORPORATION, priority 1986, dated 1988)
Values after ≈ are worked out from the molar mass of the structure shown.

Experiments:
A. parvosata = assay: Susceptibility of A. parvosata to antibiotic disks; format: cell-based, Actinomadura parvosata; settings: BBL susceptibility disks on nutrient agar; rifampin 5 ug, penicillin 10 U; 1 week at 28°C
Method: Susceptibility of A. parvosata to antibiotics was examined by placing BBL susceptibility disks on nutrient agar plates seeded with A. parvosata. Plates were placed at 4°C for 1 hour to permit diffusion of the antibiotics. Diameters of the zones of inhibition were measured after incubation for 1 week at 28°C.

Staph. aureus 2620 [1] = assay: MIC, standard microtiter assay; format: cell-based; settings: Staphylococcus aureus; Staph. aureus 2620; Table IX; read-out: MIC
Method: (§1) The in vitro minimal inhibitory concentration (MIC) of the AAJ-271 complex and its factors, and vancomycin were determined for a number of microorganisms using the standard microtite'r assay procedures. The results are shown in the following tables, each of which represents a different production run of the complex.
(§2) The in vitro minimal inhibitory concentration (MIC) and the in vitro minimal bactericidal concentration (MBC) of the AAJ-271 aglycones, pseudo-aglycone and vancomycin were determined for a number of microorganisms using the standard microtiter assay procedures.

Staph. aureus 675 [2] = assay: MIC, standard microtiter assay; format: cell-based; settings: Staphylococcus aureus; Staph. aureus 675; Table IX; read-out: MIC
Method: as §1, §2

Staph. aureus HH127 [3] = assay: MIC, standard microtiter assay; format: cell-based; settings: Staphylococcus aureus; Staph. aureus HH127; Table IX; read-out: MIC
Method: as §1, §2

Staph. epidermidis 2265 [4] = assay: MIC, standard microtiter assay; format: cell-based; settings: Staphylococcus epidermidis; Staph. epidermidis 2265; Table IX; read-out: MIC
Method: as §1, §2

Staph. epidermidis 2479 [5] = assay: MIC, standard microtiter assay; format: cell-based; settings: Staphylococcus epidermidis; Staph. epidermidis 2479; Table IX; read-out: MIC
Method: as §1, §2

Staph. haemolyticus 651 [6] = assay: MIC, standard microtiter assay; format: cell-based; settings: Staphylococcus haemolyticus; Staph. haemolyticus 651; Table IX; read-out: MIC
Method: as §1, §2

Strep. faecalis 34358 [7] = assay: MIC, standard microtiter assay; format: cell-based; settings: Enterococcus faecalis; Strep. faecalis 34358; Table IX; read-out: MIC
Method: as §1, §2

Strep. faecalis 657 [8] = assay: MIC, standard microtiter assay; format: cell-based; settings: Enterococcus faecalis; Strep. faecalis 657; Table IX; read-out: MIC
Method: as §1, §2

Staph. aureus 2620 [9] = assay: MBC, standard assay procedures; format: cell-based; settings: Staphylococcus aureus; Staph. aureus 2620; Table IX; read-out: MBC
Method: (§3) The in vitro minimal bactericidal concentration (MBC) of the AAJ-271 C, C2 and C3 factors and vancomycin were determined for a number of microorganisms using standard assay procedures.
as §2

Staph. aureus 675 [10] = assay: MBC, standard assay procedures; format: cell-based; settings: Staphylococcus aureus; Staph. aureus 675; Table IX; read-out: MBC
Method: as §3, §2

Staph. aureus HH127 [11] = assay: MBC, standard assay procedures; format: cell-based; settings: Staphylococcus aureus; Staph. aureus HH127; Table IX; read-out: MBC
Method: as §3, §2

Staph. epidermidis 2265 [12] = assay: MBC, standard assay procedures; format: cell-based; settings: Staphylococcus epidermidis; Staph. epidermidis 2265; Table IX; read-out: MBC
Method: as §3, §2

Staph. epidermidis 2479 [13] = assay: MBC, standard assay procedures; format: cell-based; settings: Staphylococcus epidermidis; Staph. epidermidis 2479; Table IX; read-out: MBC
Method: as §3, §2

Staph. haemolyticus 651 [14] = assay: MBC, standard assay procedures; format: cell-based; settings: Staphylococcus haemolyticus; Staph. haemolyticus 651; Table IX; read-out: MBC
Method: as §3, §2

Strep. faecalis 34358 [15] = assay: MBC, standard assay procedures; format: cell-based; settings: Enterococcus faecalis; Strep. faecalis 34358; Table IX; read-out: MBC
Method: as §3, §2

Strep. faecalis 657 [16] = assay: MBC, standard assay procedures; format: cell-based; settings: Enterococcus faecalis; Strep. faecalis 657; Table IX; read-out: MBC
Method: as §3, §2

Row | MIC (Staph. aureus 2620 [1]) | MIC (Staph. aureus 675 [2]) | MIC (Staph. aureus HH127 [3]) | MIC (Staph. epidermidis 2265 [4]) | MIC (Staph. epidermidis 2479 [5]) | MIC (Strep. faecalis 34358 [7]) | MIC (Strep. faecalis 657 [8]) | Compound | susceptibility of A. parvosata to antibiotic disks (zones of inhibition) (A. parvosata) | MIC (Staph. haemolyticus 651 [6]) | MBC (Staph. aureus 2620 [9]) | MBC (Staph. aureus 675 [10]) | MBC (Staph. aureus HH127 [11]) | MBC (Staph. epidermidis 2265 [12]) | MBC (Staph. epidermidis 2479 [13]) | MBC (Staph. haemolyticus 651 [14]) | MBC (Strep. faecalis 34358 [15]) | MBC (Strep. faecalis 657 [16])
1 | – | – | – | – | – | – | – | penicillin | resistant | – | – | – | – | – | – | – | – | –
2 | – | – | – | – | – | – | – | CO[C@H]1/C=C/O[C@@]2(C)Oc3c(C)c(O)c4c(O)c(c(/C=N/N5CCN(C)CC5)c(O)c4c3C2=O)NC(=O)/C(C)=C\C=C\[C@H](C)[C@H](O)[C@@H](C)[C@@H](O)[C@@H](C)[C@H](OC(C)=O)[C@@H]1C [rifampin] | resistant | – | – | – | – | – | – | – | – | –
3 | 3.1 µg/mL (≈ 2.25 µM) | 3.1 µg/mL (≈ 2.25 µM) | 3.1 µg/mL (≈ 2.25 µM) | 12.5 µg/mL (≈ 9.09 µM) | 6.3 µg/mL (≈ 4.58 µM) | 3.1 µg/mL (≈ 2.25 µM) | 3.1 µg/mL (≈ 2.25 µM) | CNC1C(=O)NC2Cc3ccc(cc3)Oc3cc4cc(c3O)Oc3ccc(cc3Cl)C(O)C3NC(=O)C(NC(=O)C4NC(=O)C(NC2=O)c2cc(cc(O)c2Cl)Oc2cc1ccc2O)c1ccc(O)c(c1)-c1c(O[C@H]2O[C@H](CO)[C@@H](O)[C@H](O)[C@@H]2O)cc(O)cc1C(C(=O)O)NC3=O (stereo partly drawn) [AAJ 271 Pseudo-aglycone] | – | 25 µg/mL (≈ 18.2 µM) | 3.1 µg/mL (≈ 2.25 µM) | 3.1 µg/mL (≈ 2.25 µM) | 6.3 µg/mL (≈ 4.58 µM) | 12.5 µg/mL (≈ 9.09 µM) | 6.3 µg/mL (≈ 4.58 µM) | 25 µg/mL (≈ 18.2 µM) | 3.1 µg/mL (≈ 2.25 µM) | 3.1 µg/mL (≈ 2.25 µM)
